{"source": "patent US6495133B1", "about": "“Gliocladium roseum strains useful for the control of fungal pathogens in plants” (priority 1998, dated 2002)", "tested_on": "Pythium aphanidermatum", "experiment": "Comparison and compatibility of ACM941 with metalaxyl fungicide, pythium root rot of field pea, field experiments", "type": "in vivo", "settings": "for Emergence / Yield: Saturn field pea", "key": {"[1]": {"settings": "average of the two testing years"}}, "data": [{"compound": "COCC(=O)N(c1c(C)cccc1C)C(C)C(=O)OC", "note": "(stereo not drawn) [Metalaxyl, metalaxyl]", "values": [{"measurement": "Emergence", "setting": "1997", "value": 44.3, "unit": "ab %"}, {"measurement": "Yield", "setting": "1997", "value": 990, "unit": "bc kg/ha"}, {"measurement": "Emergence", "setting": "1998", "value": 78.2, "unit": "a %"}, {"measurement": "Yield", "setting": "1998", "value": 5757, "unit": "a kg/ha"}, {"measurement": "increased emergence by", "setting": "[1]", "value": 17.3, "unit": "%"}, {"measurement": "increased yield by", "setting": "[1]", "value": 19.5, "unit": "%"}]}]}
